In ChEMBL document CHEMBL1146157, “Synthesis and SAR of 2-(4-fluorophenyl)-3-pyrimidin-4-ylimidazo[1,2-a]pyridine derivatives as anticoccidial agents” (Bioorg Med Chem Lett, 2006):

Tests used:
Eimeria acervulina [1] = assay: Antiparasitic activity against Eimeria acervulina in chicken at 25 ppm in feed assessed as percent reduction in oocyst; format: functional; design: scale not given: the % may be the effect or the level left
[2] = target: cGMP-dependent protein kinase (Eimeria tenella, UniProt Q8MMZ8); assay: Inhibition of Eimeria tenella PKG
Chain of cGMP-dependent protein kinase (Q8MMZ8 whole entry): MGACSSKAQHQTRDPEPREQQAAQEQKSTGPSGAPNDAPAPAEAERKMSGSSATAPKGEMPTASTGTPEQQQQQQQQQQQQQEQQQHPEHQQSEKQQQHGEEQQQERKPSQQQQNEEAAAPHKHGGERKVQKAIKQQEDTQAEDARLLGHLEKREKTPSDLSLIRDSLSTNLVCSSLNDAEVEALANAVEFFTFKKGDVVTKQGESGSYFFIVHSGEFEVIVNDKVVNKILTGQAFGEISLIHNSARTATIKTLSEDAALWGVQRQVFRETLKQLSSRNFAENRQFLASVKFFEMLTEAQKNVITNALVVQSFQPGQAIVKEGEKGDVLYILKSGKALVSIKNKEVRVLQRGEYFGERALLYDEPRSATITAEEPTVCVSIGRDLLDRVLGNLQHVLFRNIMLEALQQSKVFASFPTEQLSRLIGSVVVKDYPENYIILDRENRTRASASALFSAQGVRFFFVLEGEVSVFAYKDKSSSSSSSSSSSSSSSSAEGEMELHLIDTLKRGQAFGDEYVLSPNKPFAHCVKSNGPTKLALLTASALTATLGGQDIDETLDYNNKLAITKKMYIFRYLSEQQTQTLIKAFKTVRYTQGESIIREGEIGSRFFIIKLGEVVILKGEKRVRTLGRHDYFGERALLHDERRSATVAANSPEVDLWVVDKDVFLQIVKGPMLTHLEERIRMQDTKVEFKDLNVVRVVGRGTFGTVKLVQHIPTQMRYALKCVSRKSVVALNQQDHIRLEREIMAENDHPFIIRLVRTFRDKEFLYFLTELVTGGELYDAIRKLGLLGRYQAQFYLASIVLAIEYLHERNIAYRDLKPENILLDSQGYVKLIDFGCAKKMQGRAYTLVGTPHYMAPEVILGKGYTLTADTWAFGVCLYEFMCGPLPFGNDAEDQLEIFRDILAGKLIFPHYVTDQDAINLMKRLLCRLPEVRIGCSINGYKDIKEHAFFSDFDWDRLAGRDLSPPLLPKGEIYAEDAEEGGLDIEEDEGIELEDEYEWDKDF

Eimeria tenella [3] = assay: Antiparasitic activity against Eimeria tenella in chicken at 25 ppm in feed assessed as percent reduction in oocyst; format: functional; design: scale not given: the % may be the effect or the level left
Eimeria tenella [4] = assay: Antiparasitic activity against Eimeria tenella in chicken at 50 ppm in feed assessed as percent reduction in oocyst; format: functional; design: scale not given: the % may be the effect or the level left
Eimeria acervulina [5] = assay: Antiparasitic activity against Eimeria acervulina in chicken at 50 ppm in feed assessed as percent reduction in oocyst; format: functional; design: scale not given: the % may be the effect or the level left

IC50 [2] [nM] | Compound | Activity (Eimeria acervulina [1]) | Activity (Eimeria tenella [3]) | Activity (Eimeria tenella [4]) [%] | Activity (Eimeria acervulina [5]) [%]
0.47 | C[C@H](Nc1nccc(-c2c(-c3ccc(F)cc3)nc3cc(CN(C)C)ccn23)n1)c1ccccc1 | <50% | >=80% |  | 
0.32 | C[C@@H](Nc1nccc(-c2c(-c3ccc(F)cc3)nc3cc(CN(C)C)ccn23)n1)c1ccccc1 | >=80% | >=80% |  | 
0.27 | CN(C)Cc1ccn2c(-c3ccnc(OCc4ccccc4)n3)c(-c3ccc(F)cc3)nc2c1 |  |  | <50 | <50
3 | CN(C)Cc1ccn2c(-c3ccnc(N(C)Cc4ccccc4)n3)c(-c3ccc(F)cc3)nc2c1 | 50% | <50% |  | 
